According to patent US20240270722A1, “POLO LIKE KINASE 4 INHIBITORS” (ORIC Pharmaceuticals, Inc., priority 2021, published 2024):

Experiments:
[1] = molecular target: T1, human recombinant Aurora B (Homo sapiens, UniProt Q96GD4); experiment: Aurora B Kinase Biochemical Assay (ADP-Glo); details: selectivity ratio Aurora B vs PLK4
T1 construct: purchased ThermoFisher PR9210B
Experimental: Activity of human recombinant Aurora B (ThermoFisher, cat #PR9210B) was measured by quantification of adenosine diphosphate (ADP) using the ADP-Glo Kinase Assay Kit (Promega, cat #V9102). […] 5 μL of 20 nM Aurora B in assay buffer (50 mM HEPES, pH 7.5, 0.01% Brij-35, 0.01% BSA, 10 mM MgCl2, 1 mM EGTA, 1 mM DTT) was added to the plates. Test compounds and Aurora B were incubated for 15 minutes at room temperature (RT). […] Reactions were stopped and the remaining ATP depleted by adding 10 uL of ADP-Glo reagent (Promega, cat #V912B) and incubating for 40 minutes at RT. The simultaneous conversion of the remaining ADP to ATP and measurement of the newly synthesized ATP was achieved by addition of 20 μL Kinase Detection reagent (Promega, cat #V914B), incubation for 30 min at RT, and luminescence detection using the EnVision plate reader (PerkinElmer). […] The IC50 values reported in Table 2 were determined using four parameter non-linear regression curve fit.

[2] = molecular target: T2, human recombinant Aurora A (Homo sapiens, UniProt O14965); experiment: Aurora A Kinase Biochemical Assay (ADP-Glo); details: selectivity ratio Aurora A vs PLK4
T2 construct: purchased ThermoFisher PR5935A
T2 sequence (O14965 1-403): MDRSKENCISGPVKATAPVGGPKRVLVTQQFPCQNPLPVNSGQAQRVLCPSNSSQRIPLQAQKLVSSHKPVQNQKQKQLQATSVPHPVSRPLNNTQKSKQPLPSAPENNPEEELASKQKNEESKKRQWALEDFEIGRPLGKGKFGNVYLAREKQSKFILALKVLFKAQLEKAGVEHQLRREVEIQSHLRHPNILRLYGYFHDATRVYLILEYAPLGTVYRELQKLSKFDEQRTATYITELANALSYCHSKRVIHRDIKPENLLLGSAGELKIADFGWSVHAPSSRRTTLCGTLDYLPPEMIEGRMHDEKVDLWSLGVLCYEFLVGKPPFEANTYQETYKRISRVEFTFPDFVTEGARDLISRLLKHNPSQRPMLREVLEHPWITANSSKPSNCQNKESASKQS
Experimental: Activity of human recombinant Aurora A (ThermoFisher, cat #PR5935A) was measured by quantification of adenosine diphosphate (ADP) using the ADP-Glo Kinase Assay Kit (Promega, cat #V9102). […] 5 μL of 5.0 nM Aurora A in assay buffer (50 mM HEPES, pH 7.5, 0.01% Brij-35, 0.01% BSA, 10 mM MgCl2, 1 mM EGTA, 1 mM DTT) was added to the plates. Test compounds and Aurora A were incubated for 15 minutes at room temperature (RT). […] Reactions were stopped and the remaining ATP depleted by adding 10 uL of ADP-Glo reagent (Promega, cat #V912B) and incubating for 40 minutes at RT. The simultaneous conversion of the remaining ADP to ATP and measurement of the newly synthesized ATP was achieved by addition of 20 μL Kinase Detection reagent (Promega, cat #V914B), incubation for 30 min at RT, and luminescence detection using the EnVision plate reader (PerkinElmer). […] The IC50 values reported in Table 2 were determined using four parameter non-linear regression curve fit.

[3] = molecular target: T3, human recombinant PLK4 (Homo sapiens, UniProt O00444); experiment: PLK4 Biochemical Assay (ADP-Glo)
T3 construct: purchased ThermoFisher 4PV6396
T3 sequence (O00444 1-970): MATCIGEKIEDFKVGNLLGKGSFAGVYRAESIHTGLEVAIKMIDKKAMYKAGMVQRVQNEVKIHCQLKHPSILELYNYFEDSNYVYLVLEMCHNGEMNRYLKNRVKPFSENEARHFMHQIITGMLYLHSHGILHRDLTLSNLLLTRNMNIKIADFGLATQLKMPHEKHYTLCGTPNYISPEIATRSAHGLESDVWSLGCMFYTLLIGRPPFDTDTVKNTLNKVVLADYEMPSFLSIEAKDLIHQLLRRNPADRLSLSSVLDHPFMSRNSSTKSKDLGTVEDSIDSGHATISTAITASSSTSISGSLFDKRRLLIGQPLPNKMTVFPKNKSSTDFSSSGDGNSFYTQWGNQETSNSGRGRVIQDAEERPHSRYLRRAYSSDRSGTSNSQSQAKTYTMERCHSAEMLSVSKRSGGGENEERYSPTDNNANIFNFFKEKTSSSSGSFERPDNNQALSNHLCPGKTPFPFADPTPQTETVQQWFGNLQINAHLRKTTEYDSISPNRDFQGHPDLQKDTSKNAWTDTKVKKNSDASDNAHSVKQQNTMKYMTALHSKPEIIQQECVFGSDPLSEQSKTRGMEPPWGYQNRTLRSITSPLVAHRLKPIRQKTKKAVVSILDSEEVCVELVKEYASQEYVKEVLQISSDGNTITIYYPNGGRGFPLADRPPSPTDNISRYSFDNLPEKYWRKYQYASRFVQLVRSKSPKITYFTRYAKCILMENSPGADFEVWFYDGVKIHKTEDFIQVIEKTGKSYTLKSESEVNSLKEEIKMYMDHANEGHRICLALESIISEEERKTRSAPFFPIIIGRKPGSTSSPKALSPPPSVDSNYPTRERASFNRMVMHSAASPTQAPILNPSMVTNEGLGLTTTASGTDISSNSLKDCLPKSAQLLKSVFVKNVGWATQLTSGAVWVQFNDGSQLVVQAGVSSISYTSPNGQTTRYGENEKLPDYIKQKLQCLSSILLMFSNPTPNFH
Experimental: 5 μL of 1.0 nM PLK4 protein in assay buffer (50 mM HEPES, pH 7.5, 0.01% Brij-35, 0.01% BSA, 10 mM MgCl2, 1 mM EGTA, 1 mM DTT) was added to the plates. Test compounds and PLK4 were incubated for 15 minutes at room temperature (RT). […] The IC50 values reported in Table 2 were determined using four parameter non-linear regression curve fit.

T1 sequence (Q96GD4 whole entry): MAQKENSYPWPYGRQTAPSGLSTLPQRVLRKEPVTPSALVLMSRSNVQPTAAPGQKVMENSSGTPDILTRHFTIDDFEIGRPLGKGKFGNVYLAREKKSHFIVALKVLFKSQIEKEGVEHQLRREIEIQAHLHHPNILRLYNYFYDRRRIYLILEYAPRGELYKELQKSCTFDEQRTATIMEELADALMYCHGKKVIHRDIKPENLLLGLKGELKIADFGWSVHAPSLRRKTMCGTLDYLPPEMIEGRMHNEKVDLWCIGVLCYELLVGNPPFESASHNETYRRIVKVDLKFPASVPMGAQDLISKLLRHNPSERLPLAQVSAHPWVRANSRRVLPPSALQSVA

Row | [Aurora B IC50 (nM)]/[PLK4 IC50 (nM)] [1] | [Aurora A IC50 (nM)]/[PLK4 IC50 (nM)] [2] | IC50 [3] [nM] | Compound
1 | 8.474 | 355.9465 | – | COc1ccc2c(c1)[C@]1(C[C@H]1c1ccc3c(Nc4nccc5c4OC[C@@H]5CO)n[nH]c3c1)C(=O)N2 (single isomer, unassigned) [Example 33]
2 | 19.96 | 893.3126 | – | COc1ccc2c(c1)[C@]1(C[C@H]1c1ccc3c(Nc4nccc5c4OC[C@H]5CO)n[nH]c3c1)C(=O)N2 (single isomer, unassigned) [Example 34]
3 | 230 | – | – | CCOc1cc(S(=O)(=O)NC)cnc1Nc1n[nH]c2cc([C@@H]3C[C@@]34C(=O)Nc3ccc(OC)cc34)ccc12 [Example 275, 5-ethoxy-6-({6-[(1R,2S)-5′-methoxy-2′-oxo-1′,2′-dihydrospiro[cyclopropane-1,3′-indol]-2-yl]-1H-indazol-3-yl}amino)-N-methylpyridine-3-sulfonamide]
4 | 9.6 | 7.4 | – | COc1cnc(C)nc1Nc1n[nH]c2cc([C@@H]3C[C@]34C(=O)Nc3ccc(OC(F)(F)F)cc34)ccc12 [Example 139, (1S,2S)-2-{3-[(5-methoxy-2-methylpyrimidin-4-yl)amino]-1H-indazol-6-yl}-5′-(trifluoromethoxy)spiro[cyclopropane-1,3′-indol]-2′(1′H)-one]
5 | – | 50000 | – | COc1ccc2c(c1)[C@]1(C[C@H]1c1ccc3c(Nc4ncnc(N5CCOCC5)c4OC(F)F)n[nH]c3c1)C(=O)N2 [Example 109, (1R,2S)-2-(3-{[5-(difluoromethoxy)-6-(morpholin-4-yl)pyrimidin-4-yl]amino}-1H-indazol-6-yl)-5′-methoxyspiro[cyclopropane-1,3′-indol]-2′(1′H)-one]

Second part, the compound before the results:

Row | Compound | [Aurora B IC50 (nM)]/[PLK4 IC50 (nM)] [1] | [Aurora A IC50 (nM)]/[PLK4 IC50 (nM)] [2] | IC50 [3] [nM]
6 | COc1cnc(C)nc1Nc1n[nH]c2cc([C@@H]3C[C@@]34C(=O)Nc3ccc(OC(F)(F)F)cc34)ccc12 [Example 138, (1R,2S)-2-{3-[(5-methoxy-2-methylpyrimidin-4-yl)amino]-1H-indazol-6-yl}-5′-(trifluoromethoxy)spiro[cyclopropane-1,3′-indol]-2′(1′H)-one] | 36 | 70 | –
7 | COc1ccc2c(c1)[C@]1(C[C@H]1c1ccc3c(Nc4nn(C)cc4OC)n[nH]c3c1)C(=O)N2.O=C(O)C(F)(F)F [Example 79, (1R,2S)-5′-methoxy-2-{3-[(4-methoxy-1-methyl-1H-pyrazol-3-yl)amino]-1H-indazol-6-yl}spiro[cyclopropane-1,3′-indol]-2′(1′H)-one] | 6.986 | 210.5378 | –
8 | COc1ccc2c(c1)[C@]1(C[C@H]1c1ccc3c(Nc4cc(OC)c(S(N)(=O)=O)cc4OC)n[nH]c3c1)C(=O)N2 [Example 212, 2,5-Dimethoxy-4-({6-[(1R,2S)-5′-methoxy-2′-oxo-1′,2′-dihydrospiro[cyclopropane-1,3′-indol]-2-yl]-1H-indazol-3-yl}amino)benzene-1-sulfonamide] | 280 | – | –
9 | COc1cnc(C)nc1Nc1n[nH]c2cc([C@@H]3C[C@@]34C(=O)Nc3ccc(C(F)(F)F)cc34)ccc12 [Example 137, (1R,2S)-2-{3-[(5-methoxy-2-methylpyrimidin-4-yl)amino]-1H-indazol-6-yl}-5′-(trifluoromethyl)spiro[cyclopropane-1,3′-indol]-2′(1′H)-one] | 72 | 62 | –
10 | COc1ccc2c(c1)[C@]1(C[C@H]1c1ccc3c(Nc4ncc(P(C)(C)=O)cc4OC)n[nH]c3c1)C(=O)N2 [Example 225, (1R,2S)-2-(3-{[5-(dimethylphosphoryl)-3-methoxypyridin-2-yl]amino}-1H-indazol-6-yl)-5′-methoxyspiro[cyclopropane-1,3′-indol]-2′(1′H)-one] | 381.4972 | 1884.6028 | 6.12
